Assay results reported in patent publication US10633332B2, “Guanidine compounds for removal of oxyanions from aqueous solutions and for carbon dioxide capture” (UT-Battelle, LLC, priority 2010, dated 2020).
Values joined by “and” are separate entries in the source; they are usually repeats but may differ in a detail not shown here. Equal entries are not always repeated. Where two headings read alike, the source gives them in different places. Marks after values point to notes of the source that are not given here. One block for each compound: values may come before it.

What was measured:
[1] = Sulfate removal from a calcium sulfate suspension (CaSO4 dissolution cycle); conditions: overnight, room temperature, pH 6-7, powder X-ray diffraction
Experimental: An example of sulfate removal from a calcium sulfate suspension is shown schematically in FIG. 5. In the first step, the initial CaSO4 solid is treated with an aqueous chloride salt of the compound that results in crystallization of the guanidinium sulfate salt and release of the calcium ions in solution, as soluble CaCl2. In the second step, the insoluble guanidinium sulfate salt is treated with sodium hydroxide base to neutralize the guanidinium cations and release the sulfate ions in solution, as soluble Na2SO4. The resulting solid guanidine compound is then recycled and converted back into guanidinium chloride with aqueous HCl, so it can be reused in another CaSO4 dissolution cycle. Thus, the entire process is done in water (no organic solvents used), and the only chemicals consumed in the overall process are NaOH and HCl, resulting in two aqueous waste streams consisting of calcium chloride and sodium sulfate. The unique aspect of this invention is the employment of a crystallization process to achieve dissolution of CaSO4. Also, this approach is based on anion chelation by guanidinium groups rather than the more common metal chelation, which may be prone to interference from other metals in solution. […] Finally, the recovered BBIG was converted back into the chloride salt by treatment with aqueous hydrochloric acid and recycled for another CaSO4 dissolution cycle.

[2] = Aqueous solubility of BBIG salts (gravimetric / UV spectroscopy); conditions: 25 °C, water, thermodynamic from solid
[3] = Sulfate separation from seawater (35S radiotracer, β liquid scintillation counting); conditions: for Amount of SO4^2− removed / [SO4^2−] left: initial sulfate 30 mM; for % Sulfate Removed / Sulfate Left: initial sulfate 30 mmol/L
Experimental: The seawater used in the experiment was collected from the gulf stream in the Atlantic Ocean. Prior to use, the water was pre-filtered to remove suspended particulates and small organisms. […] The sulfate concentration in seawater was estimated to be about 30 mM by titration with BaCl2. […] A volume of 0.75 mL of each of these solutions was pipetted into a 2 mL Eppendorf microcentrifuge tube, and 0.75 mL of seawater pre-spiked with the ^35S radiotracer was added. The resulting solution mixtures were mixed for 24 hours using a rotating wheel set at 60 rpm in a temperature-controlled air-box set at 25±0.2° C. […] The radiolabeled ^35S radiotracer is a β emitter, thereby allowing determination of the sulfate concentration of a solution spiked with a known amount of Na2^35SO4 by β liquid scintillation counting. The seawater solutions were pre-spiked with […] of the ^35S radiotracer, as above. […] The volume of the spike solution was determined by factoring in the original activity of the solution and correcting for the short half-life of the ^35S radiotracer. The Na2^35SO4 solution had completed 3.8 half-lives before use in this experiment. […] The resulting mixtures were vigorously shaken to allow for complete dissolution and dispersion of the salt solutions. The samples were then placed on the analyzer and counted for 30 minutes after allowing 60 minutes for dark-adaption.

[4] = cited from earlier work; for reaction rate of CO2 with the amino acid: 25° C., expected
[5] = literature value; cited from earlier work
[6] = Differential scanning calorimetry of CO2 release; format: physicochemical; conditions: DSC, all peaks between 80 and 140° C. integrated
Excerpt: Although the CO2 desorption could theoretically be achieved by running reactions 1-6 in reverse order according to the principle of microscopic reversibility, in reality it would not be feasible as reaction 4 is practically irreversible. Such an approach would also defeat the purpose of avoiding heating the aqueous sorbent. Instead, once the loading is complete, the crystalline PyBIGH2(CO3)(H2O)4 is removed from solution and heated in the solid state to release the CO2 gas and the water vapors. Given the completely different conditions involved, such a gas-solid process must have different energetics compared to the gas-liquid-solid process involved in CO2 absorption. In order to determine the enthalpy of CO2 release, differential scanning calorimetry (DSC) was employed. DSC is a common technique used in thermal analysis of solids. […] As the enthalpy of vaporization for water is 40.65 kJ/mol, more than 90% of the enthalpy of desorption is used for water evaporation. This represents a significant energy penalty that must be accounted for, and which encourages the use of renewable sources of energy, such as concentrated solar power (vide infra), to make the overall DAC process energy more sustainable.

[7] = Carbonate/bicarbonate CO2 capture cycle: crystallization from 1 M NaHCO3
Excerpt: Finally, thermal decomposition of PyBIGH2(CO3)(H2O)4 regenerates the PyBIG compound and releases the CO2. […] The resulting mixture was filtered, and the separated crystalline solid was confirmed by PXRD and FTIR to be PyBIGH2(CO3)(H2O)4. […] The entire carbonate separation cycle was run three times, with observed yields for PyBIGH2(CO3)(H2O)4 crystallization of 99.0±0.4%, 97.2±0.6%, and 91.4±0.4%, corresponding to the first, second, and third cycle, respectively. The regeneration of the PyBIG compound was nearly quantitative in each cycle.

[8] = CO2 release and PyBIG regeneration using concentrated solar power; format: physicochemical; conditions: for Δm: 38 mg sample
Experimental: Carbon dioxide release and regeneration of PyBIG using concentrated solar power: The CO2 release from the PyBIGH2(CO3)(H2O)4 crystals was carried out by solar heating with a solar oven. The oven consists of a vacuum-insulated borosilicate tube placed in the focal point of two adjustable parabolic reflectors. The temperature inside the tube was monitored with a thermocouple. The PyBIGH2(CO3)(H2O)4 samples (0.038 g, 0.1 mmol) were loaded in 1 mL glass vials, which were placed inside the oven tube. The solar oven was then placed in the full sun and oriented to capture the maximum amount of sunlight. The temperature was ramped to the targeted values of 120° C., 140° C., 150° C., or 160° C. as fast as possible (typically within 3 to 10 minutes), then held within ±2° C. by intermittently moving the oven out of the sun, or/and closing the reflectors. The samples were subsequently removed from the tube, allowed to cool to room temperature, and weighed to determine their mass loss. The resulting yellow solids were analyzed by FTIR to confirm the disappearance of the carbonate and water peaks.
However, considering this transformation is highly endothermic, the possibility of using concentrated solar power to render the process more energy sustainable was explored. For the initial small-scale proof of concept, a solar oven (FIG. 6) was used to heat the PyBIGH2(CO3)(H2O)4 samples (38 mg, 0.1 mmol) at four different temperatures ranging between 120 and 160° C., monitoring the extent of the reactions by the samples' weight loss (Table 7 below). FTIR analyses also corroborated the release of CO2, most evidently noticeable by the disappearance of the strong peak at 1361 cm^−1 corresponding to the stretching mode of the carbonate anion.

[9] = aqueous, ˜10 mM
[10] = Thermodynamic analysis: reaction enthalpies (variable-temperature solubility, pKa, van't Hoff)

SMILES: Cl.Cl.N=C(N)N/N=C/c1ccc(/C=N/NC(=N)N)cc1 [Compound 1]
conversion of solid CaSO4(H2O)2 into crystalline BBIG-SO4(H2O)2 [1]: complete conversion
solubility at 48 h [2]: 63 mM
degree of separation of sulfate from seawater [3]: very high degrees of separation
Amount of SO4^2− removed ([3]; 1 equiv BBIG): 88%
[SO4^2−] left ([3]; 1 equiv BBIG): 3.5 mM
Amount of SO4^2− removed ([3]; 1.1 equiv BBIG): 95%
[SO4^2−] left ([3]; 1.1 equiv BBIG): 1.6 mM
Amount of SO4^2− removed ([3]; 1.5 equiv BBIG): 99%
[SO4^2−] left ([3]; 1.5 equiv BBIG): 0.3 mM
Amount of SO4^2− removed ([3]; 2 equiv BBIG): 99%
[SO4^2−] left ([3]; 2 equiv BBIG): 0.3 mM
% Sulfate Removed ([3]; compound 15 mmol/L): 40.8% and 41.8%
Sulfate Left ([3]; compound 15 mmol/L): 1706 mg/L and 1676 mg/L
% Sulfate Removed ([3]; compound 30 mmol/L): 88.7% and 88.0%
Sulfate Left ([3]; compound 30 mmol/L): 326 mg/L and 347 mg/L
% Sulfate Removed ([3]; compound 33 mmol/L): 95.6% and 93.6%
Sulfate Left ([3]; compound 33 mmol/L): 128 mg/L and 185 mg/L
% Sulfate Removed ([3]; compound 45 mmol/L): 99.0% and 98.9%
Sulfate Left ([3]; compound 45 mmol/L): 28 mg/L and 30 mg/L
% Sulfate Removed ([3]; compound 60 mmol/L): 98.9%
Sulfate Left ([3]; compound 60 mmol/L): 31 mg/L

SMILES: Cl.Cl.N=C(N)N/N=C/c1cccc(/C=N/NC(=N)N)n1 [Compound 2]
degree of separation of sulfate from seawater [3]: very high degrees of separation
% Sulfate Removed ([3]; compound 15 mmol/L): 48.41% and 48.57%
Sulfate Left ([3]; compound 15 mmol/L): 1487 mg/L and 1482 mg/L
% Sulfate Removed ([3]; compound 30 mmol/L): 93.28% and 94.41%
Sulfate Left ([3]; compound 30 mmol/L): 194 mg/L and 161 mg/L
% Sulfate Removed ([3]; compound 33 mmol/L): 99.72% and 99.60%
Sulfate Left ([3]; compound 33 mmol/L): 8 mg/L and 12 mg/L
% Sulfate Removed ([3]; compound 45 mmol/L): 99.94%
Sulfate Left ([3]; compound 45 mmol/L): 1.7 mg/L
% Sulfate Removed ([3]; compound 60 mmol/L): 99.95%
Sulfate Left ([3]; compound 60 mmol/L): 1.5 mg/L

SMILES: NCC(=O)O [Glycine, glycine]
reaction rate of CO2 with the amino acid [4]: 13.9 kM/s
pKa [5]: 9.5

SMILES: [Na+].[OH-] [NaOH]
flux of CO2 absorbed from air ([4]; 1 M solution): around 30 μmol/m2/s

overall enthalpy of desorption [6]: 53.3 ± 0.96 kcal/mol
temperature of heating at which CO2 is released (heating the carbonate crystals): 80-120 °C
decomposition completion (isothermal TGA at 80° C., after 300 minutes): 77%
time to complete loss of carbon dioxide and water (isothermal TGA at 100° C.): 150 min
time to complete loss of carbon dioxide and water (isothermal TGA at 120° C.): 60 min
mass loss (oven, one hour at 120° C.): 34.3%
mass loss (temperature-ramped TGA, between 65 and 140° C.): 35.2%
Δm/mi ([8]; 120° C., 30 min): −31.6%
Δm ([8]; 120° C., 30 min): -12 mg
Δm/mi ([8]; 140° C., 10 min): −34.2%
Δm ([8]; 140° C., 10 min): -13 mg
Δm/mi ([8]; 150° C., 5 min): −31.6%
Δm ([8]; 150° C., 5 min): -12 mg
Δm/mi ([8]; 160° C., 2 min): −36.8%
Δm ([8]; 160° C., 2 min): -14 mg
SMILES: N=C(N)NN=Cc1cccc(C=NNC(=N)N)n1.O.O.O.O.O=C(O)O [PyBIGH2(CO3)(H2O)4]
yield of PyBIGH2(CO3)(H2O)4 crystallization ([7]; first cycle, 1 M NaHCO3, room temperature, four hours): 99.0±0.4%
yield of PyBIGH2(CO3)(H2O)4 crystallization ([7]; second cycle): 97.2±0.6%
yield of PyBIGH2(CO3)(H2O)4 crystallization ([7]; third cycle): 91.4±0.4%

SMILES: N=C(N)N/N=C/c1cccc(/C=N/NC(=N)N)n1 [PyBIG]
no decomposition of the regenerated compound up to (TGA-MS): 190 °C
pH of saturated solution [9]: about 10
ΔH reaction 1 (PyBIG dissolution) ([10]; This study): 10.2 kcal/mol
ΔH reaction 6 (PyBIGH2(CO3)(H2O)4 crystallization) ([10]; This study): -11.2 kcal/mol
ΔH reaction 2 (PyBIG protonation by water) ([10]; This study, composed from protonation enthalpies and ionization of water): 43.6^a kJ/mol
overall enthalpy of CO2 absorption ([10]; sum of reactions 1-6): -16.9 kcal/mol

SMILES: CNCC(=O)O [Sarcosine, sarcosine]
reaction rate of CO2 with the amino acid [4]: 18.6 kM/s
